In patent US20220265629A1, “TREATMENT OF SYSTOLIC DYSFUNCTION AND HEART FAILURE WITH REDUCED EJECTION FRACTION WITH THE COMPOUND (R)-4-(1-((3-(DIFLUOROMETHYL)-1-METHYL-1H-PYRAZOL-4-YL)SULFONYL)-1-FLUOROETHYL)-N-(ISOXAZOL-3-YL)PIPERIDINE-1-CARBOXAMIDE” (MyoKardia, Inc., priority 2019, published 2022):
Like-named read-outs stand apart in the source and are kept apart here.

Experiments:
[1] = Single ascending oral dose study in healthy volunteers: urinary excretion and renal clearance; assay type: in vivo, human; details: for CL renal: human, plasma and urine
Procedure: The concentrations of Compound I in human plasma and urine were quantitated by high performance liquid chromatography with tandem mass spectrometric detection (LC MS/MS) (Biological sample analysis study report Alturas AD17-726). Plasma samples were extracted by protein precipitation with acetonitrile containing internal standard MYK-5654. The calibration curves were linear over concentration range of 0.500 to 1000 ng/mL with a lower limit of quantification (LLOQ) of 0.500 ng/mL.
The PK Population included all subjects who received Compound I. Blood samples were collected for PK assessments. The actual timing of the samples may have been modified and/or up to an additional 2 samples may have been requested by the SRC after review of the data from previous cohorts. It was important that PK sampling occurred as closely as possible to the scheduled time (±10%). Both blood and urine samples were used for PK assessments.

[2] = tested on: healthy subjects; assay: Single ascending oral dose study in healthy volunteers: transthoracic echocardiography (TTE) pharmacodynamics; assay type: in vivo, human; details: for DBP placebo-corrected change from Baseline (LS mean difference) / E/A ratio placebo-corrected change from Baseline (LS mean difference) / E/e′(lateral) placebo-corrected change from Baseline (LS mean difference) / HR placebo-corrected change from Baseline (LS mean difference) / IVCT placebo-corrected change from Baseline (LS mean difference) / IVRT placebo-corrected change from Baseline (LS mean difference) / LVEDD placebo-corrected change from Baseline (LS mean difference) / LVEDV placebo-corrected change from Baseline (LS mean difference) / LVEF placebo-corrected change from Baseline (LS mean difference) / LVESD placebo-corrected change from Baseline (LS mean difference) / LVESV placebo-corrected change from Baseline (LS mean difference) / LVFS placebo-corrected change from Baseline (LS mean difference) / LVGCS placebo-corrected change from Baseline (LS mean difference) / LVGLS placebo-corrected change from Baseline (LS mean difference) / MPI placebo-corrected change from Baseline (LS mean difference) / PEP placebo-corrected change from Baseline (LS mean difference) / Peak A placebo-corrected change from Baseline (LS mean difference) / Peak E placebo-corrected change from Baseline (LS mean difference) / SBP placebo-corrected change from Baseline (LS mean difference) / SET placebo-corrected change from Baseline (LS mean difference) / Stroke Volume placebo-corrected change from Baseline (LS mean difference): 6 hours post-dose
Procedure: To assess pharmacodynamic effects, serial echocardiograms were performed. The sonographers used in the study completed Echo protocol training and submitted an example of a study for evaluation to the core laboratory for evaluation. The core TTE lab certified that the sonographer was able to perform the TTEs at a level satisfactory for obtaining the required protocol data.
These criteria were chosen to prevent subjects from having prolongation of SET that might lead to myocardial ischemia. Dose escalation stopping criteria also included observation of a Baseline-corrected, group mean relative increase of >20% in any 2 sequential TTE assessments in at least 2 measures of LV contractility: LVOT-VTI, LVFS, LVEF, or LVSV in subjects receiving Compound I. Placebo-controlled evaluation may have been considered. For this comparison, subjects who received placebo may have been pooled across cohorts.
SET as determined by TTE was assessed using summary statistics. Observations and change from Baseline were summarized by treatment at each time point and the maximum change from Baseline determined for each subject. In addition, categorical analyses were performed on the number of subjects with a change from Baseline>50 msec and the number of subjects with a change from Baseline>75 msec in 1 or any 2 sequential TTE assessments. The relationship to Compound I plasma concentration to SET was explored. An analysis of SET placebo-adjusted change from Baseline was also performed.
As the Cmax occurred at between 4 and 6 hours in most of the subjects, the TTE obtained at 6 hours postclose was considered the best timepoint to explore the relationship between concentration and pharmacological effect. TTEs obtained at 1.5 and 3 hours after dosing were before the Cmax and at 9 hours were after the peak Cmax. Based on the preclinical data, it was considered unlikely that there would be a prolonged lag between the Cmax and peak pharmacological effect. As the exposure after the administration of the 350 mg and 525 mg doses were very similar, it was decided to not only present the results from these groups separately, but also to combine the data from these groups. By combining the data from the 2 groups, the number of subjects closed was increased from 6 to 12, thus increasing the power to observe a statistically significant change from Baseline in the TTE parameters of interest.
An analysis of placebo-corrected change from Baseline at 6 hours postclose by Compound I plasma concentration bins is presented in Table 6 below.

[3] = 350 mg and 525 mg combined, 6 hours postdose
[4] = 350 mg and 525 mg combined, 12 hours postdose
[5] = concentration exceeded 2000 ng/mL (median 2592 ng/mL)
[6] = plasma concentrations >2000 ng/mL, 6 hours postdose

## Cn1cc(S(=O)(=O)[C@@](C)(F)C2CCN(C(=O)Nc3ccon3)CC2)c(C(F)F)n1 [Compound I, (R)-4-(1-((3-(difluoromethyl)-1-methyl-1H-pyrazol-4-yl)sulfonyl)-1-fluoroethyl)-N-(isoxazol-3-yl)piperidine-1-carboxamide]
[1]; 350 mg
  dose recovered in 0-48 hours urine: approximately 6.0%
[1]; 525 mg
  dose recovered in 0-48 hours urine: ~8.6%
[1]; oral, all doses, read-out: renal clearance, mean (converted)
  CL renal: 9.5 mL/min
[1]; po, 350 mg, 350 mg dose group, read-out: renal clearance, mean (SD) (converted)
  CL renal: 5.55 mL/min
[1]; po, 525 mg, 525 mg dose group, read-out: renal clearance, mean (SD) (converted)
  CL renal: 13.3 mL/min
[1]; po, all doses, read-out: renal clearance, individuals range
  CL renal: 2.95 to 23.3 mL/min
[1]; po, all doses, read-out: renal clearance, mean (converted)
  CL renal: ~9.5 mL/min
[2]; 50 mg, 24 hours postdose
  LVEDD, highest observed change from Baseline: 0.103 (0.217) cm
[2]; 100 mg, 12 hours postdose
  LVEF, maximum mean (SD) increase: 4.83 (2.65) %
[2]; 350 mg and 525 mg combined, 1.5 to 2 hours postdose
  SET, observed mean (SD) increase: 18.0 (19.5) msec
[2]; [3]
  LVEDV, mean (SD) decrease: −9.98 (7.83) mL
  LVESV, mean (SD) decrease: −6.82 (5.99) mL
  LVOT-VTI, mean (SD) increase: 2.28 (1.43) cm
[2]; [4]
  LVEDD, mean (SD) decrease: −0.171 (0.177) cm
  LVSV, mean (SD) increase: 7.623 (7.842) mL
[2]; 350 mg, 1.5 to 2 hours postdose
  SET, largest observed mean (SD) increase: 19.2 (20.5) msec
[2]; 350 mg, 6 hours postdose
  LVOT-VTI, maximum change from Baseline: 2.54 (1.78) cm
[2]; 350 mg, 12 hours postdose
  LVSV, maximum mean (SD) increase: 10.848 (9.893) mL
[2]; 525 mg, 6 hours postdose
  LVEDV, largest mean (SD) decrease: −12.5 (6.96) mL
  LVEF, maximum mean (SD) increase: 4.65 (1.45) %
  LVESV, largest mean (SD) decrease: −9.21 (3.18) mL
[2]; 525 mg, 12 hours postdose
  LVEDD, largest observed mean (SD) decrease: −0.213 (0.221) cm
  LVESD, largest observed mean (SD) decrease: −0.455 (0.357) cm
[2]; plasma 0-1000 ng/mL
  DBP placebo-corrected change from Baseline (LS mean difference): 2.277 mm Hg
  E/A ratio placebo-corrected change from Baseline (LS mean difference): 0.150
  E/e′(lateral) placebo-corrected change from Baseline (LS mean difference): −0.235
  HR placebo-corrected change from Baseline (LS mean difference): −1.070 bpm
  IVCT placebo-corrected change from Baseline (LS mean difference): 0.677 ms
  IVRT placebo-corrected change from Baseline (LS mean difference): 1.526 ms
  LVEDD placebo-corrected change from Baseline (LS mean difference): −0.014 cm
  LVEDV placebo-corrected change from Baseline (LS mean difference): -2.210 mL
  LVEF placebo-corrected change from Baseline (LS mean difference): 0.322%
  LVESD placebo-corrected change from Baseline (LS mean difference): 0.025 cm
  LVESV placebo-corrected change from Baseline (LS mean difference): -1.204 mL
  LVFS placebo-corrected change from Baseline (LS mean difference): −0.560%
  LVGCS placebo-corrected change from Baseline (LS mean difference): −1.076%
  LVGLS placebo-corrected change from Baseline (LS mean difference): −0.467%
  MPI placebo-corrected change from Baseline (LS mean difference): −0.007
  PEP placebo-corrected change from Baseline (LS mean difference): -2.190 ms
  Peak A placebo-corrected change from Baseline (LS mean difference): -3.09 cm/s
  Peak E placebo-corrected change from Baseline (LS mean difference): -966000 ×10⁻⁶ cm/s
  SBP placebo-corrected change from Baseline (LS mean difference): −0.623 mm Hg
  SET placebo-corrected change from Baseline (LS mean difference): 10.623 ms
  Stroke Volume placebo-corrected change from Baseline (LS mean difference): 2.631 mL
[2]; plasma 1001-2000 ng/mL
  DBP placebo-corrected change from Baseline (LS mean difference): 2.937 mm Hg
  E/A ratio placebo-corrected change from Baseline (LS mean difference): 0.177
  E/e′(lateral) placebo-corrected change from Baseline (LS mean difference): 0.144
  HR placebo-corrected change from Baseline (LS mean difference): 0.336 bpm
  IVCT placebo-corrected change from Baseline (LS mean difference): 1.412 ms
  IVRT placebo-corrected change from Baseline (LS mean difference): 0.148 ms
  LVEDD placebo-corrected change from Baseline (LS mean difference): −0.041 cm
  LVEDV placebo-corrected change from Baseline (LS mean difference): -6.100 mL
  LVEF placebo-corrected change from Baseline (LS mean difference): 2.176%
  LVESD placebo-corrected change from Baseline (LS mean difference): −0.159 cm
  LVESV placebo-corrected change from Baseline (LS mean difference): -4.101 mL
  LVFS placebo-corrected change from Baseline (LS mean difference): 3.549%
  LVGCS placebo-corrected change from Baseline (LS mean difference): −1.383%
  LVGLS placebo-corrected change from Baseline (LS mean difference): −1.274%
  MPI placebo-corrected change from Baseline (LS mean difference): −0.021
  PEP placebo-corrected change from Baseline (LS mean difference): -5.487 ms
  Peak A placebo-corrected change from Baseline (LS mean difference): -2.87 cm/s
  Peak E placebo-corrected change from Baseline (LS mean difference): -1.43 cm/s
  SBP placebo-corrected change from Baseline (LS mean difference): 1.132 mm Hg
  SET placebo-corrected change from Baseline (LS mean difference): 23.049 ms
  Stroke Volume placebo-corrected change from Baseline (LS mean difference): 2.509 mL
[2]; plasma >2000 ng/mL
  DBP placebo-corrected change from Baseline (LS mean difference): 1.540 mm Hg
  E/A ratio placebo-corrected change from Baseline (LS mean difference): −0.047
  E/e′(lateral) placebo-corrected change from Baseline (LS mean difference): −0.063
  HR placebo-corrected change from Baseline (LS mean difference): 2.871 bpm
  IVCT placebo-corrected change from Baseline (LS mean difference): 6.115 ms
  IVRT placebo-corrected change from Baseline (LS mean difference): 11.986 ms
  LVEDD placebo-corrected change from Baseline (LS mean difference): −0.115 cm
  LVEDV placebo-corrected change from Baseline (LS mean difference): -9.678 mL
  LVEF placebo-corrected change from Baseline (LS mean difference): 3.219%
  LVESD placebo-corrected change from Baseline (LS mean difference): −0.306 cm
  LVESV placebo-corrected change from Baseline (LS mean difference): -6.031 mL
  LVFS placebo-corrected change from Baseline (LS mean difference): 6.289%
  LVGCS placebo-corrected change from Baseline (LS mean difference): −2.854%
  LVGLS placebo-corrected change from Baseline (LS mean difference): −1.779%
  MPI placebo-corrected change from Baseline (LS mean difference): 0.033
  PEP placebo-corrected change from Baseline (LS mean difference): -2.131 ms
  Peak A placebo-corrected change from Baseline (LS mean difference): 657000 ×10⁻⁶ cm/s
  Peak E placebo-corrected change from Baseline (LS mean difference): -5.3 cm/s
  SBP placebo-corrected change from Baseline (LS mean difference): −1.572 mm Hg
  SET placebo-corrected change from Baseline (LS mean difference): 25.645 ms
  Stroke Volume placebo-corrected change from Baseline (LS mean difference): 8.197 mL
[2]; [5]
  LVEDD, mean decrease: 0.12 cm
  LVEDV, mean decrease: 9.68 mL
  LVEF, mean absolute increase: 3.2%
  LVESD, mean decrease: 0.31 cm
  LVESV, mean decrease: 6.03 mL
  LVFS, mean absolute increase: 6.3%
  LVGCS, mean absolute decrease: 2.85%
  LVGLS, mean absolute decrease: 1.78%
  LVSV, mean increase: 8.2%
  SET, mean increase: 25.7 ms
[2]; plasma concentrations >2000 ng/mL
  diastolic function/relaxation (E/A ratio and E/e′): no significant effects
[2]; plasma concentrations >2000 ng/mL (median 2425 ng/mL), 6 hours postdose
  SET, placebo-corrected change from Baseline (LS mean difference±SE): 25.6 ± 7.71 ms
[2]; [6]
  IVRT (mitral inflow doppler), placebo-corrected change from Baseline (LS mean difference±SE): 12.0 ± 3.92 ms
  LVEDV, placebo-corrected change from Baseline (LS mean difference±SE): -9.68 ± 2.95 mL
  LVEF, placebo-corrected change from Baseline (LS mean difference±SE): 3.22±1.48%
  LVESD, placebo-corrected change from Baseline (LS mean difference±SE): −0.306±0.077 cm
  LVESV, placebo-corrected change from Baseline (LS mean difference±SE): -6.03 ± 1.87 mL
  LVFS, placebo-corrected change from Baseline (LS mean difference±SE): 6.29±1.55%
  LVGCS, placebo-corrected change from Baseline (LS mean difference±SE): -2.85 ± 0.99%
  LVGLS, placebo-corrected change from Baseline (LS mean difference±SE): -1.78 ± 0.76%
  stroke volume, placebo-corrected change from Baseline (LS mean difference±SE): 8.20 ± 3.99 mL
